Data taken from patent publication US5756488A, “Composition for improving calcium metabolism” (Kuraray Co., Ltd., priority 1995, dated 1998).

Experiments:
[1] = target: T1, vitamin D-binding protein (Rattus norvegicus, UniProt P04276); experiment: Assay of affinity for vitamin D-binding protein (displacement of tritium-labeled 25-hydroxyvitamin D3, serum of vitamin D-deficient rat); conditions: ratio of ED50 with control = 1, for Compounds 1, 2 and 3 30% replacement values were used
T1 construct: from tissue; host or cells: serum of vitamin D-deficient rat, diluted 1:10000, protein not purified
T1 sequence (P04276 17-476): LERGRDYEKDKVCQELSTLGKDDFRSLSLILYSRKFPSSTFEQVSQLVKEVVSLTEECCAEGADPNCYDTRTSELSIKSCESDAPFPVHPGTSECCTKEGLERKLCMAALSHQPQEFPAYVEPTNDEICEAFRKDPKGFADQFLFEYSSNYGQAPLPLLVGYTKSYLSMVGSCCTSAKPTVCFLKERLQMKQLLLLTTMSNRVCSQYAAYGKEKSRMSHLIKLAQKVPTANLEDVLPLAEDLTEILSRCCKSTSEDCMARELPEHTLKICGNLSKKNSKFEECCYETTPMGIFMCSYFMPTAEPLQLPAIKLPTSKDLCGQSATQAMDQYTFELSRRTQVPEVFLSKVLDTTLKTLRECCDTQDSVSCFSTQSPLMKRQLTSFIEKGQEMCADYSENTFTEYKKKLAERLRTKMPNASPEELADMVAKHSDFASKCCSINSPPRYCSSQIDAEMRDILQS
Experimental: Assay of Affinity for Vitamin D-Binding Protein
The serum of vitamin D-deficient rat was diluted 1:10000 with 3.5 mM barbiturate buffer solution (pH 8.6) containing 0.13 M NaCl. […] Then, 500 μl of the diluted solution of vitamin D deficient rat serum was added to each culture tube, which was then subjected to vortex stirring. After incubation at 4° C. for 1 hour, 250 μL of DCC suspension was added and vortex-stirred. Each of the culture tubes was allowed to stand for 15 minutes at 4° C., and centrifuged at 3000 rpm at 4° C. for 10 minutes.

Acute toxicity tests = conditions: in vivo
[2] = system: vitamin D-binding protein; conditions: from the literature; cited from earlier work
[3] = system: 1,25-dihydroxyvitamin D3 receptor; conditions: from the literature; cited from earlier work

Row | SMILES | Affinity for vitamin D-binding protein relative to 1α,25-dihydroxyvitamin D3 [1] | other results
1 | C=C1/C(=C\C=C2/CCC[C@]3(C)[C@@H]([C@H](C)[C@@H](C)CCC(C)(C)O)CC[C@@H]23)C[C@@H](O)C[C@@H]1O [Compound 4, (20R,22S)-22-methyl-1α,25-dihydroxyvitamin D3] | 2/3 | –
2 | C=C1/C(=C\C=C2/CCC[C@]3(C)[C@@H]([C@H](C)[C@H](C)CCC(C)(C)O)CC[C@@H]23)C[C@@H](O)C[C@@H]1O [Compound 3, (20R,22R)-22-methyl-1α,25-dihydroxyvitamin D3] | 1/220 | –
3 | C=C1/C(=C\C=C2/CCC[C@]3(C)[C@@H]([C@@H](C)[C@@H](C)CCC(C)(C)O)CC[C@@H]23)C[C@@H](O)C[C@@H]1O [Compound 2, (20S,22S)-22-methyl-1α,25-dihydroxyvitamin D3] | 1/500 | –
4 | C=C1/C(=C\C=C2/CCC[C@]3(C)[C@@H]([C@@H](C)[C@H](C)CCC(C)(C)O)CC[C@@H]23)C[C@@H](O)C[C@@H]1O [Compound 1, (20S,22R)-22-methyl-1α,25-dihydroxyvitamin D3] | 1/500 and lowest affinity | Affinity for vitamin D-binding protein relative to 1α,25-dihydroxyvitamin D3 ([1]; listed as (20S,22R)-22-methyl-1α,25-dihydroxyvitamin D3): one five-hundredth and low; Toxicity in acute toxicity tests (Acute toxicity tests): low toxicity
5 | C=C1/C(=C\C=C2/CCC[C@]3(C)[C@@H]([C@H](C)OCCC(C)(C)O)CC[C@@H]23)C[C@@H](O)C[C@@H]1O [22-oxa-1,25-dihydroxyvitamin D3] | – | Affinity for vitamin D-binding protein relative to 1,25-dihydroxyvitamin D3 [2]: about one six-hundredth; Affinity for the D3 receptor relative to 1,25-dihydroxyvitamin D3 [3]: one-eighth
